Measurements published in article PMC10223608, “Structural Congeners of Izenamides Responsible for Cathepsin D Inhibition: Insights from Synthesis-Derived Elucidation” (Marine Drugs, 2023).

Experiments:
Human liver cathepsin D = target: T1, Human liver cathepsin D (Homo sapiens, UniProt P07339); test: Cathepsin D (CTSD) human pepsin aspartic peptidase enzymatic assay (Eurofins Panlabs); format: biochemical; settings: for Inhibition of CTSD (%): 190 mU/mL enzyme, modified acetate buffer pH 4.0, 15 min preincubation at 37 °C, 20 μM MOCAc substrate for 10 min, spectrofluorimetric read-out, duplicate, N.A. = not active
T1 construct: tissue Eurofins Panlabs Discovery Services (ran the assay); host or cells: human liver
T1 sequence (P07339 65-412): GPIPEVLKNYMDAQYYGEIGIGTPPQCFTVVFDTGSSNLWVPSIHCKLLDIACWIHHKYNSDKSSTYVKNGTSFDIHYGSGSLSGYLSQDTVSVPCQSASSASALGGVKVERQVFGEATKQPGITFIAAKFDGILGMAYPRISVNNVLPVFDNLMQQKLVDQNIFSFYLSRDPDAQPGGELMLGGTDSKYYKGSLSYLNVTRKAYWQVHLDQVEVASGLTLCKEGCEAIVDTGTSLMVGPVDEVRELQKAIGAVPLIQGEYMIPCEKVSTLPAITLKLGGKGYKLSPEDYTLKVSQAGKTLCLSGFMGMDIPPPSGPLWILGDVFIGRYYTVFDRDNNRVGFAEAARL
Protocol: The CTSD-inhibition assay was performed at Eurofins Panlabs Discovery Services by measuring the percentage inhibition at concentrations of 0.5 and 1.0 μM (Table 1).
Human liver cathepsin D was used for the enzymatic essay. Test compound or vehicle was preincubated with 190 mU/mL enzyme in modified acetate buffer pH 4.0 for 15 minutes at 37 °C. The reaction was initiated by addition of 20 μM MOCAc-[…]Dnp)-D-Arg NH2 for another 10-minute incubation period. Determination of the amount of MOCAc formed was read spectrofluorimetrically at 340 nm/400. Compounds were screened at 0.5 and 1.0 μM. Cathepsin-D-Human-Pepsin-Aspartic-Peptidase-Enzymatic-Assay-Panlabs (eurofinsdiscovery.com, accessed on 22 February 2022).

CTSD = settings: natural izenamides; cited from earlier work
Excerpt: In 2018, izenamides A-C (1–3), which are linear depsipeptides, were first isolated from the marine cyanobacterium 1605-5 by Suenaga et al (Figure 1). Izenamides A (1) and B (2) contain four amino acids (Pro-O-Me, N-Me-Phe, Ala, and Ile); two α-hydroxy acids (two valic acids for 1, and one valic acid and one isoleucic acid for 2); and a γ-amino-β-hydroxy acid moiety known as statine [(3S,4S)-4-amino-3-hydroxy-6-methylheptanoic acid, Sta]. Izenamide C (3) also contains Pro-O-Me, N-Me-Phe, Ile, and valic acid; however, it contains Gly in place of Ala in 1 and 2, as well as isoleucic acid. ...

| Inhibition of CTSD (%) (Human liver cathepsin D; 0.5 μM compound) | Inhibition of CTSD (%) (Human liver cathepsin D; 1.0 μM compound) | CTSD-inhibitory activity (in words) (Human liver cathepsin D; screened at 0.5 and 1.0 μM) | Substance | inhibitory activities against CTSD in vitro (in words) (CTSD) |
| --- | --- | --- | --- | --- |
| 37.29% | 40.96% | – | 18-epi-izenamide B [Compound 8] | – |
| 26.99% | 36.07% | – | Sta-incorporated-izenamide C [Compound 7] | – |

The remaining lines, values behind:

| Substance | Inhibition of CTSD (%) (Human liver cathepsin D; 0.5 μM compound) | Inhibition of CTSD (%) (Human liver cathepsin D; 1.0 μM compound) | CTSD-inhibitory activity (in words) (Human liver cathepsin D; screened at 0.5 and 1.0 μM) | inhibitory activities against CTSD in vitro (in words) (CTSD) |
| --- | --- | --- | --- | --- |
| izenamide A [Compound 1] | 10.13% | 15.55% | – | moderate inhibitory activities |
| izenamide B [Compound 2] | 8.12% | 14.76% | – | moderate inhibitory activities |
| izenamide C [Compound 3] | – | – | no CTSD inhibition | does not show CTSD inhibition |
